Data taken from patent US6355799B1, “Substituted benzene compounds, process for their preparation, and herbicidal and defoliant compositions containing them” (ISK Americas Incorporated, priority 1997, dated 2002).

What was measured:
Format in all cases: in vivo
[1] = test system: upland rice (Oryza sp., var. Tebonnet, RICE); assay: Post-emerge test, crop safety; conditions: post-emerge, 14 days after application, rating scale 0-100
How it was run: (§1)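 Compounds in acetone were track-sprayed at 187 l/ha, 15–1000 g ai/ha, onto sandy loam pots. Pre-emerge seeds were sown one day before spraying, with surface watering afterwards. Post-emerge plants were at the 2–3 leaf stage and sprayed with 0.25% v/v non-ionic surfactant. Injury was rated 0–100 at 14 days.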

[2] = test system: field corn (Zea mays L., var. Dekalb 535, CORN); assay: Post-emerge test, crop safety; conditions: post-emerge, 14 days after application, rating scale 0-100
How it was run: as §1

[3] = test system: upland rice (Oryza sp., var. Tebonnet, RICE); assay: Pre-emerge test, crop safety; conditions: rated 14 days after application, 0 = no damage, 100 = complete death
How it was run: (§2)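 Sandy loam pots; pre-emerge: sown 1 d pre-spray, surface-watered after, then bottom-watered. Post-emerge: sown 8–21 d before, 2–3 leaf stage, + 0.25% v/v NIS, bottom-watered. Acetone, 187 l/ha track spray, 15–1000 g ai/ha. 0–100 injury score, day 14.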

[4] = test system: field corn (Zea mays L., var. Dekalb 535, CORN); assay: Pre-emerge test, crop safety; conditions: rated 14 days after application, 0 = no damage, 100 = complete death
How it was run: as §2

[5] = test system: redroot pigweed (Amaranthus retroflexus, AMARE); assay: Pre-emerge test, greenhouse herbicide activity screening; conditions: rated 14 days after application, 0 = no damage, 100 = complete death
How it was run: as §2

[6] = test system: green foxtail (Setaria viridis, SETVI); assay: as above; conditions: rated 14 days after application, 0 = no damage, 100 = complete death
How it was run: as §1

[7] = test system: lambsquarters (Chenopodium album, CHEAL); assay: as above; conditions: rated 14 days after application, 0 = no damage, 100 = complete death
How it was run: as §1

[8] = test system: barnyardgrass (Echinochloa crus-galli, ECHCG); assay: as above; conditions: rated 14 days after application, 0 = no damage, 100 = complete death
How it was run: as §1

[9] = test system: common ragweed (Ambrosia artemisizfolia L., AMBEL); assay: as above; conditions: rated 14 days after application, 0 = no damage, 100 = complete death
How it was run: as §1

[10] = test system: ivyleaf morningglory (Ipomoea hederacea, IPOHE); assay: as above; conditions: rated 14 days after application, 0 = no damage, 100 = complete death
How it was run: as §1

[11] = test system: johnsongrass (Sorghum halepense, SORHA); assay: as above; conditions: rated 14 days after application, 0 = no damage, 100 = complete death
How it was run: as §1

[12] = test system: velvetleaf (Abutilon theophrasti, ABUTH); assay: as above; conditions: rated 14 days after application, 0 = no damage, 100 = complete death
How it was run: as §1

[13] = test system: large crabgrass (Digitaria sanguinalis, DIGSA); assay: as above; conditions: rated 14 days after application, 0 = no damage, 100 = complete death
How it was run: as §1

[14] = test system: sicklepod (Cassia obtusifolia, CASOB); assay: as above; conditions: rated 14 days after application, 0 = no damage, 100 = complete death
How it was run: as §1

[15] = test system: lambsquarters (Chenopodium album, CHEAL); assay: Post-emerge test, greenhouse herbicide activity screening; conditions: post-emerge, 14 days after application, rating scale 0-100
How it was run: (§3)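 Visual ratings on a 0-100 scale (0 no damage, 100 all plants dead) were taken at 14 days after treatment. Rates of 15-1000 g ai/ha in acetone, 187 l/ha, were sprayed onto soil one day after planting (pre-emerge) or onto 2-3 leaf plants with 0.25% v/v surfactant (post-emerge).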

[16] = test system: barnyardgrass (Echinochloa crus-galli, ECHCG); assay: as above; conditions: post-emerge, 14 days after application, rating scale 0-100
How it was run: as §3

[17] = test system: common ragweed (Ambrosia artemisizfolia L., AMBEL); assay: as above; conditions: post-emerge, 14 days after application, rating scale 0-100
How it was run: as §3

[18] = test system: ivyleaf morningglory (Ipomoea hederacea, IPOHE); assay: as above; conditions: post-emerge, 14 days after application, rating scale 0-100
How it was run: as §3

[19] = test system: johnsongrass (Sorghum halepense, SORHA); assay: as above; conditions: post-emerge, 14 days after application, rating scale 0-100
How it was run: as §3

[20] = test system: velvetleaf (Abutilon theophrasti, ABUTH); assay: as above; conditions: post-emerge, 14 days after application, rating scale 0-100
How it was run: as §3

[21] = test system: large crabgrass (Digitaria sanguinalis, DIGSA); assay: as above; conditions: post-emerge, 14 days after application, rating scale 0-100
How it was run: as §3

[22] = test system: sicklepod (Cassia obtusifolia, CASOB); assay: as above; conditions: post-emerge, 14 days after application, rating scale 0-100
How it was run: as §3

[23] = test system: redroot pigweed (Amaranthus retroflexus, AMARE); assay: as above; conditions: post-emerge, 14 days after application, rating scale 0-100
How it was run: as §3

COc1c(Cl)cc(F)c(-n2c(=O)cc(C(F)(F)F)n(C)c2=O)c1N(C(=O)c1ccc(C(F)(F)F)cc1)C(=O)c1ccc(C(F)(F)F)cc1 [2-34]
95: Pre-emerge Herbicidal Activity, phytotoxicity rating (0-100), SETVI ([6]; 63 g ai/ha) | phytotoxicity rating IPOHE ([18]; 250 g ai/ha) | phytotoxicity rating AMARE ([23]; 63 g ai/ha) | phytotoxicity rating AMARE ([23]; 250 g ai/ha)
40: Pre-emerge phytotoxicity rating (0-100), crop damage, RICE ([3]; 63 g ai/ha) | phytotoxicity rating SORHA ([19]; 63 g ai/ha)
65: phytotoxicity rating RICE ([1]; 63 g ai/ha)
99: Pre-emerge Herbicidal Activity, phytotoxicity rating (0-100), ECHCG ([8]; 250 g ai/ha)
60: phytotoxicity rating CORN ([2]; 63 g ai/ha)
80: phytotoxicity rating SORHA ([19]; 250 g ai/ha)
20: Pre-emerge Herbicidal Activity, phytotoxicity rating (0-100), SORHA ([11]; 63 g ai/ha)
25: Pre-emerge phytotoxicity rating (0-100), crop damage, CORN ([4]; 63 g ai/ha)
85: phytotoxicity rating RICE ([1]; 250 g ai/ha) | Pre-emerge Herbicidal Activity, phytotoxicity rating (0-100), SORHA ([11]; 250 g ai/ha) | phytotoxicity rating CHEAL ([15]; 63 g ai/ha) | phytotoxicity rating AMBEL ([17]; 250 g ai/ha)
0: phytotoxicity rating ECHCG ([16]; 63 g ai/ha)
70: Pre-emerge Herbicidal Activity, phytotoxicity rating (0-100), ECHCG ([8]; 63 g ai/ha) | Pre-emerge Herbicidal Activity, phytotoxicity rating (0-100), DIGSA ([13]; 63 g ai/ha) | phytotoxicity rating AMBEL ([17]; 63 g ai/ha)
10: phytotoxicity rating DIGSA ([21]; 63 g ai/ha)
30: phytotoxicity rating ECHCG ([16]; 250 g ai/ha) | phytotoxicity rating DIGSA ([21]; 250 g ai/ha)
100: Pre-emerge Herbicidal Activity, phytotoxicity rating (0-100), AMARE ([5]; 63 g ai/ha) | Pre-emerge Herbicidal Activity, phytotoxicity rating (0-100), AMARE ([5]; 250 g ai/ha) | Pre-emerge Herbicidal Activity, phytotoxicity rating (0-100), SETVI ([6]; 250 g ai/ha) | Pre-emerge Herbicidal Activity, phytotoxicity rating (0-100), CHEAL ([7]; 63 g ai/ha) | Pre-emerge Herbicidal Activity, phytotoxicity rating (0-100), CHEAL ([7]; 250 g ai/ha) | Pre-emerge Herbicidal Activity, phytotoxicity rating (0-100), AMBEL ([9]; 63 g ai/ha) | Pre-emerge Herbicidal Activity, phytotoxicity rating (0-100), AMBEL ([9]; 250 g ai/ha) | Pre-emerge Herbicidal Activity, phytotoxicity rating (0-100), IPOHE ([10]; 63 g ai/ha) | Pre-emerge Herbicidal Activity, phytotoxicity rating (0-100), IPOHE ([10]; 250 g ai/ha) | Pre-emerge Herbicidal Activity, phytotoxicity rating (0-100), ABUTH ([12]; 63 g ai/ha) | Pre-emerge Herbicidal Activity, phytotoxicity rating (0-100), ABUTH ([12]; 250 g ai/ha) | Pre-emerge Herbicidal Activity, phytotoxicity rating (0-100), DIGSA ([13]; 250 g ai/ha) | Pre-emerge Herbicidal Activity, phytotoxicity rating (0-100), CASOB ([14]; 63 g ai/ha) | Pre-emerge Herbicidal Activity, phytotoxicity rating (0-100), CASOB ([14]; 250 g ai/ha) | phytotoxicity rating ABUTH ([20]; 63 g ai/ha) | phytotoxicity rating ABUTH ([20]; 250 g ai/ha) | phytotoxicity rating CASOB ([22]; 63 g ai/ha) | phytotoxicity rating CASOB ([22]; 250 g ai/ha)
75: phytotoxicity rating IPOHE ([18]; 63 g ai/ha)
90: phytotoxicity rating CORN ([2]; 250 g ai/ha) | Pre-emerge phytotoxicity rating (0-100), crop damage, RICE ([3]; 250 g ai/ha) | Pre-emerge phytotoxicity rating (0-100), crop damage, CORN ([4]; 250 g ai/ha) | phytotoxicity rating CHEAL ([15]; 250 g ai/ha)

COc1c(Cl)cc(F)c(-n2c(=O)cc(C(F)(F)F)n(C)c2=O)c1NC(=O)c1ccc(-c2ccccc2)cc1 [2-37]
50: Pre-emerge Herbicidal Activity, phytotoxicity rating (0-100), CHEAL ([7]; 250 g ai/ha)
10: phytotoxicity rating AMARE ([23]; 250 g ai/ha)
0: phytotoxicity rating RICE ([1]; 63 g ai/ha) | phytotoxicity rating RICE ([1]; 250 g ai/ha) | phytotoxicity rating CORN ([2]; 63 g ai/ha) | phytotoxicity rating CORN ([2]; 250 g ai/ha) | Pre-emerge phytotoxicity rating (0-100), crop damage, RICE ([3]; 63 g ai/ha) | Pre-emerge phytotoxicity rating (0-100), crop damage, RICE ([3]; 250 g ai/ha) | Pre-emerge phytotoxicity rating (0-100), crop damage, CORN ([4]; 63 g ai/ha) | Pre-emerge phytotoxicity rating (0-100), crop damage, CORN ([4]; 250 g ai/ha) | Pre-emerge Herbicidal Activity, phytotoxicity rating (0-100), AMARE ([5]; 63 g ai/ha) | Pre-emerge Herbicidal Activity, phytotoxicity rating (0-100), SETVI ([6]; 63 g ai/ha) | Pre-emerge Herbicidal Activity, phytotoxicity rating (0-100), SETVI ([6]; 250 g ai/ha) | Pre-emerge Herbicidal Activity, phytotoxicity rating (0-100), CHEAL ([7]; 63 g ai/ha) | Pre-emerge Herbicidal Activity, phytotoxicity rating (0-100), ECHCG ([8]; 63 g ai/ha) | Pre-emerge Herbicidal Activity, phytotoxicity rating (0-100), ECHCG ([8]; 250 g ai/ha) | Pre-emerge Herbicidal Activity, phytotoxicity rating (0-100), AMBEL ([9]; 63 g ai/ha) | Pre-emerge Herbicidal Activity, phytotoxicity rating (0-100), AMBEL ([9]; 250 g ai/ha) | Pre-emerge Herbicidal Activity, phytotoxicity rating (0-100), IPOHE ([10]; 63 g ai/ha) | Pre-emerge Herbicidal Activity, phytotoxicity rating (0-100), IPOHE ([10]; 250 g ai/ha) | Pre-emerge Herbicidal Activity, phytotoxicity rating (0-100), SORHA ([11]; 63 g ai/ha) | Pre-emerge Herbicidal Activity, phytotoxicity rating (0-100), SORHA ([11]; 250 g ai/ha) | Pre-emerge Herbicidal Activity, phytotoxicity rating (0-100), ABUTH ([12]; 63 g ai/ha) | Pre-emerge Herbicidal Activity, phytotoxicity rating (0-100), DIGSA ([13]; 63 g ai/ha) | Pre-emerge Herbicidal Activity, phytotoxicity rating (0-100), DIGSA ([13]; 250 g ai/ha) | Pre-emerge Herbicidal Activity, phytotoxicity rating (0-100), CASOB ([14]; 63 g ai/ha) | Pre-emerge Herbicidal Activity, phytotoxicity rating (0-100), CASOB ([14]; 250 g ai/ha) | phytotoxicity rating CHEAL ([15]; 63 g ai/ha) | phytotoxicity rating ECHCG ([16]; 63 g ai/ha) | phytotoxicity rating ECHCG ([16]; 250 g ai/ha) | phytotoxicity rating AMBEL ([17]; 63 g ai/ha) | phytotoxicity rating AMBEL ([17]; 250 g ai/ha) | phytotoxicity rating IPOHE ([18]; 63 g ai/ha) | phytotoxicity rating IPOHE ([18]; 250 g ai/ha) | phytotoxicity rating SORHA ([19]; 63 g ai/ha) | phytotoxicity rating SORHA ([19]; 250 g ai/ha) | phytotoxicity rating ABUTH ([20]; 63 g ai/ha) | phytotoxicity rating DIGSA ([21]; 63 g ai/ha) | phytotoxicity rating DIGSA ([21]; 250 g ai/ha) | phytotoxicity rating CASOB ([22]; 63 g ai/ha) | phytotoxicity rating CASOB ([22]; 250 g ai/ha) | phytotoxicity rating AMARE ([23]; 63 g ai/ha)
20: phytotoxicity rating CHEAL ([15]; 250 g ai/ha)
30: Pre-emerge Herbicidal Activity, phytotoxicity rating (0-100), AMARE ([5]; 250 g ai/ha) | Pre-emerge Herbicidal Activity, phytotoxicity rating (0-100), ABUTH ([12]; 250 g ai/ha) | phytotoxicity rating ABUTH ([20]; 250 g ai/ha)
